Source: patent US7608622B2, “Imidazo[4,5-b]pyrazinone inhibitors of protein kinases” (Janssen Pharmaceutica NV, priority 2004, dated 2009)

Molecular target: T1, Aurora-2 (Homo sapiens, UniProt O14965)
T1 construct: autophosphorylation of Aurora-2 (residues 125-391)
T1 sequence (O14965 125-391): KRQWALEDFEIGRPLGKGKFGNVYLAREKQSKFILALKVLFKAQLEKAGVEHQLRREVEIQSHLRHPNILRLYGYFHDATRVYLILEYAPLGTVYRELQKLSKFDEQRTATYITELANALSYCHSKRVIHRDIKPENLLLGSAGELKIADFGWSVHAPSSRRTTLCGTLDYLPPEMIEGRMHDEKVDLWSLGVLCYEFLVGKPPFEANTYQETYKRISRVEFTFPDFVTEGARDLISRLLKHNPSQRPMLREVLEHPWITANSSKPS
Experiment: Aurora-2 Enzymatic Assay (ELISA-based)
Format: biochemical
Details: phosphorylated Aurora-2 (residues 125-391), Histone H3 Ser-10 phosphorylation, averages of three independent measurements; read-out: Aurora-2 IC50 Enzyme
Description: In vitro assays were run to measure potency of Aurora-2 kinase inhibition by selected compounds of Formula I.
Aurora-2 Enzymatic Assay. An ELISA-based enzymatic assay was used to determine the compound potency for Aurora-2. In this assay, phosphorylated Aurora-2 (Pi-Aurora-2) catalyzes the ATP-dependent phosphorylation of Ser-10 of Histone H3. Pi-Aurora-2 was produced by autophosphorylation of Aurora-2 (residues 125-391) by 1 mM ATP in the presence of 10 mM MgCl2. The assay buffer used was 100 mM HEPES, pH 7.5, 1 mM DTT, 0.01% (v/v) Tween-20. Compounds were diluted in assay buffer containing 4% DMSO just prior to the assay. • Procedure. High-binding 96-well ELISA plates (Costar 9018) were coated overnight at 4° C. with 10 μg/ml human Histone H3 (Upstate) in PBS (100 μl/well). The following day, the plates were emptied and blocked with 1% BSA in PBS (150 μl/well) for 1 h at 37° C. At the end of the incubation, plates were washed 3 times with 0.01% Tween-20 in PBS (300 μl/well). 50 μl of compound were dispensed to each well followed by addition of 20 μl 10 mM MgCl2 and 20 μl 50 μM ATP (Sigma). The reaction was initiated by addition of 10 μl 30 nM Pi-Aurora-2. […] The reaction was quenched with 9 μl 50 mM EDTA and the plates were washed 5 times with 0.01% Tween-20 in PBS (300 μl/well). The phospho-histone H3 (Ser10) 6G3 monoclonal antibody (Cell Signaling) was then diluted 2,000-fold with 1% BSA in PBS, and was added to the plates (100 μl/well). Following 1 h incubation at 37° C., the plates were washed as described above. The HRP-conjugated secondary antibody (goat anti-mouse Ig(H+ L)-HRP human absorbed, Southern Biotechnology Associates, Inc.) was diluted 20,000-fold with 1% BSA in PBS and was added to the plates (100 μl/well). The plates were incubated for 1 h at 37° C. and then washed 5 times with 0.01% Tween-20 in PBS (300 μl/well). 100 μl/well TMB, SureBlue Reserve (KPL) were added. After ca. 5-6 min, each well received 100 μl 1 M HCl and the OD450 was measured with a SpectraMax Plus microplate reader (Molecular Devices). Under these conditions, absorbance values for positive and negative controls were ca. 0.1 and 1.7, respectively, and were used to define the 100% and 0% inhibition of the Aurora-2 reaction. The IC50 values reported (Table 1) are the averages of three independent measurements.

IC50 [nM]	Compound
> 1000	COc1cccc(-c2cnc3[nH]c(=O)n(Cc4ccccc4)c3n2)c1 [Compound 17, 1-Benzyl-6-(3-methoxyphenyl)-1,3-dihydroimidazo[4,5-b]pyrazin-2-one]
500 to 1000	COc1cccc(Cn2c(=O)[nH]c3ncc(-c4cc(OC)c(OC)c(OC)c4)nc32)c1 [Compound 32, 1-(3-Methoxybenzyl)-6-(3,4,5-trimethoxyphenyl)-1,3-dihydro-imidazo[4,5-b]pyrazin-2-one]
< 500	COc1cc(-c2cnc3[nH]c(=O)n([C@@H](C)c4ccccc4)c3n2)cc(OC)c1OC [Compound 1, 1-((S)-(−)-1-Phenylethyl)-6-(3,4,5-trimethoxyphenyl)-1,3-dihydroimidazo[4,5-b]pyrazin-2-one]
> 1000	O=c1[nH]c2ncc(-c3cccnc3)nc2n1Cc1ccccc1 [Compound 9, 1-Benzyl-6-pyridin-3-yl-1,3-dihydroimidazo[4,5-b]pyrazin-2-one]
500 to 1000	COc1cc(-c2cnc3[nH]c(=O)n(Cc4ccc5c(c4)OCO5)c3n2)cc(OC)c1OC [Compound 34, 1-Benzo[1,3]dioxol-5-ylmethyl-6-(3,4,5-trimethoxyphenyl)-1,3-dihydroimidazo[4,5-b]pyrazin-2-one]
< 500	COc1cc(-c2cnc3[nH]c(=O)n(Cc4cccc(F)c4)c3n2)cc(OC)c1OC [Compound 31, 1-(3-Fluorobenzyl)-6-(3,4,5-trimethoxyphenyl)-10,3-dihydro-imidazo[4,5-b]pyrazin-2-one]
< 500	COc1cc(-c2cnc3[nH]c(=O)n(Cc4cccc(Cl)c4)c3n2)cc(OC)c1OC [Compound 29, 1-(3-Chlorobenzyl)-6-(3,4,5-trimethoxyphenyl)-1,3-dihydro-imidazo[4,5-b]pyrazin-2-one]
> 1000	COCc1cccc(-c2cnc3[nH]c(=O)n(Cc4ccccc4)c3n2)c1 [Compound 12, 1-Benzyl-6-(3-methoxymethylphenyl)-1,3-dihydroimidazo[4,5-b]pyrazin-2-one]
> 1000	C[C@@H](c1ccccc1)n1c(=O)[nH]c2ncc(-c3cc4ccccc4[nH]3)nc21 [Compound 8, 6-(1H-Indol-2-yl)-1-((S)-(−)-1-phenylethyl)-1,3-dihydro-imidazo[4,5-b]pyrazin-2-one]
> 1000	O=c1[nH]c2ncc(-c3cccs3)nc2n1Cc1ccccc1 [Compound 16, 1-Benzyl-6-thiophen-2-yl-1,3-dihydroimidazo[4,5-b]pyrazin-2-one]
> 1000	COc1ccc(-c2cnc3[nH]c(=O)n(Cc4ccccc4)c3n2)cc1C=O [Compound 22, 5-(3-Benzyl-2-oxo-2,3-dihydro-1H-imidazo[4,5-b]pyrazin-5-yl)-2-methoxybenzaldehyde]
> 1000	C[C@@H](c1ccccc1)n1c(=O)[nH]c2ncc(-c3ccc4[nH]ccc4c3)nc21 [Compound 4, 6-(1H-Indol-5-yl)-1-((S)-(−)-1-phenylethyl)-1,3-dihydroimidazo[4,5-b]pyrazin-2-one]
500 to 1000	O=C(O)c1cc(-c2cnc3[nH]c(=O)n(Cc4ccccc4)c3n2)ccc1O [Compound 25, 5-(3-Benzyl-2-oxo-2,3-dihydro-1H-imidazo[4,5-b]pyrazin-5-yl)-2-hydroxybenzoic acid]
> 1000	Cc1noc(C)c1-c1cnc2[nH]c(=O)n([C@@H](C)c3ccccc3)c2n1 [Compound 5, 6-(3,5-Dimethylisoxazol-4-yl)-1-((S)-(−)-1-phenylethyl)-1,3-dihydro-imidazo[4,5-b]pyrazin-2-one]
> 1000	CC(=O)c1cccc(-c2cnc3[nH]c(=O)n(Cc4ccccc4)c3n2)c1 [Compound 13, 6-(3-Acetylphenyl)-1-benzyl-1,3-dihydroimidazo[4,5-b]pyrazin-2-one]
500 to 1000	COc1ccc(-c2cnc3[nH]c(=O)n(Cc4ccccc4)c3n2)cc1OC [Compound 10, 1-Benzyl-6-(3,4-dimethoxyphenyl)-1,3-dihydroimidazo[4,5-b]pyrazin-2-one]
> 1000	COc1ccc(-c2cnc3[nH]c(=O)n(Cc4ccccc4)c3n2)cc1C(N)=O [Compound 26, 5-(3-Benzyl-2-oxo-2,3-dihydro-1H-imidazo[4,5-b]pyrazin-5-yl)-2-methoxybenzamide]
